Measurements published in ChEMBL document CHEMBL1137009, “Inhibition of sphingosine-1-phosphate lyase for the treatment of autoimmune disorders” (J Med Chem, 2009).
Activity calls are given as the source filed them. The calls are words filed in the database; no cut-off is given here.

How the values were obtained:
[1] = Clearance in 129/SvEvBrd x C57BL/6 hybrid mouse at 1 mg/kg, iv; assay type: ADME, organism-based; design: dose 1 mg/kg, route intravenous; conditions: in vivo
[2] = Permeability across human Caco-2 cell membrane at 20 uM; assay type: ADME, cell-based; conditions: read-out: permeability
[3] = (§1) Oral bioavailability in 129/SvEvBrd x C57BL/6 hybrid mouse at 1 mg/kg, iv and 10 mg/kg, po; assay type: ADME, organism-based; conditions: 129/SvEvBrd x C57BL/6 hybrid, in vivo
Mus musculus [4] = assay: Induction of lymphopenia in 129/SvEvBrd x C57BL/6 hybrid mouse assessed as change in circulating lymphocyte level at 100 mg/kg, po administered as single dose after 18 hrs by complete blood count analysis relative to control; assay type: functional
[5] = Half life in 129/SvEvBrd x C57BL/6 hybrid mouse; assay type: ADME, organism-based; conditions: in vivo
[6] = (§2) AUC (0 to infinity) in 129/SvEvBrd x C57BL/6 hybrid mouse at 10 mg/kg, po; assay type: ADME, organism-based, Plasma; design: time infinity, dose 10 mg/kg, route oral; conditions: 129/SvEvBrd x C57BL/6 hybrid, plasma
[7] = Cmax in 129/SvEvBrd x C57BL/6 hybrid mouse at 100 mg/kg, po; assay type: ADME, organism-based; design: dose 100 mg/kg, route oral; conditions: in vivo
[8] = target: T1, Sphingosine-1-phosphate lyase 1 (Mus musculus) (UniProt Q8R0X7); assay: Inhibition of sphingosine-1-phosphate lyase in mouse spleen assessed as production of [33P]phosphoethanolamine; assay type: tissue-based
T1 sequence (whole entry): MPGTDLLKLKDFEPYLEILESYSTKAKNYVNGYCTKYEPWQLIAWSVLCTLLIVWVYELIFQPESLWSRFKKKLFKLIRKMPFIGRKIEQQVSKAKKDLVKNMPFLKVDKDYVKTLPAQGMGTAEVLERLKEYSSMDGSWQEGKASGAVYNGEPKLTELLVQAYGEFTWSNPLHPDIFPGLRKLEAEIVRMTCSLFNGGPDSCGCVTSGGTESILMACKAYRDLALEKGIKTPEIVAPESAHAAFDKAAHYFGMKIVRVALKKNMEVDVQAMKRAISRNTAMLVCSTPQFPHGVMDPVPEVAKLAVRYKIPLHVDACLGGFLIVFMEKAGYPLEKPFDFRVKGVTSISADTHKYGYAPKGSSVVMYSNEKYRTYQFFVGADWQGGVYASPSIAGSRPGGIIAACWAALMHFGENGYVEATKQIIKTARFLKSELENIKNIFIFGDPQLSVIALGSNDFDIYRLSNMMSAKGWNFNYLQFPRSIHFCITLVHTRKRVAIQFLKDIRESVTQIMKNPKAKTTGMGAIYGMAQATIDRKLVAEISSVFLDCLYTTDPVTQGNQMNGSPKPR

HepG2 = assay: Increase in sphingosine-1-phosphate level in human HepG2 cells relative to control; assay type: functional
Mus musculus [9] = assay: Induction of lymphopenia in ip dosed 129/SvEvBrd x C57BL/6 hybrid mouse whole blood assessed as reduction in lymphocyte level by complete blood count analysis after 4 hrs; assay type: functional, organism-based
[10] = AUC in 129/SvEvBrd x C57BL/6 hybrid mouse at 100 mg/kg, po; assay type: ADME, organism-based; design: dose 100 mg/kg, route oral; conditions: plasma
Mus musculus [11] = assay: as §1; assay type: ADME, organism-based; conditions: in vivo
Mus musculus [12] = assay: as §2; assay type: ADME, organism-based, Plasma; design: time infinity, dose 10 mg/kg, route oral; conditions: in vivo
Mus musculus [13] = assay: Induction of lymphopenia in 129/SvEvBrd x C57BL/6 hybrid mouse assessed as change in circulating lymphocyte level at 30 mg/kg, po administered as single dose after 18 hrs by complete blood count analysis relative to control; assay type: functional

Row | SMILES | clearance [1] [mL/min/kg] | Papp at 20 µM [2] [×10⁻⁶ cm/s] | bioavailability [3] [%] | half-life [5] [min] | AUC(0-inf) [6] [µM·h] | Cmax [7] [nM] | Activity [8] | AUC [10] [µM·h] | F (Mus musculus [11]) [%] | AUC (Mus musculus [12]) [µM·h] | Activity (Mus musculus [4]) [%] | Activity (HepG2) [%] | Activity (Mus musculus [9]) | Activity (Mus musculus [13]) [%]
1 | OC[C@@H](O)[C@@H](O)[C@H](O)c1c[nH]c(-c2ncc[nH]2)n1 | 31.5 | 25.9 | 28 | 192 | 5.9 | – | – | – | – | – | -53 | – | – | –
2 | Cn1cnc(-c2nc([C@@H](O)[C@H](O)[C@H](O)CO)c[nH]2)c1 | 9.1 | 26.2 | 3 | 96 | 2.6 | – | – | – | – | – | -5 | – | – | –
3 | CCCCCCCCCCCC/C=C/C[C@@H](O)[C@H](CO)NCc1c(CO)cnc(C)c1O | – | – | – | – | – | < 1000 | inactive | < 1 | – | – | – | 275 | Non-toxic | –
4 | OC[C@@H](O)[C@@H](O)[C@H](O)c1c[nH]c(-c2ncn(Cc3ccccc3)n2)n1 | 16.4 | 5.1 | 6 | 144 | 1.7 | – | – | – | – | – | -41 | – | – | –
5 | Cc1scnc1-c1nc([C@@H](O)[C@H](O)[C@H](O)CO)c[nH]1 | – | 4.9 | – | – | – | – | – | – | – | – | -7 | – | – | –
6 | CC(=O)c1ncc([C@@H](O)[C@H](O)[C@H](O)CO)s1 | – | 13.9 | – | 54 | – | – | – | – | 65 | 2.7 | 25 | – | – | –
7 | OC[C@@H](O)[C@@H](O)[C@H](O)c1c[nH]c(C(F)(F)C(F)(F)F)n1 | – | – | – | 102 | – | – | – | – | 31 | 10 | – | – | – | -11
8 | OC[C@@H](O)[C@@H](O)[C@H](O)c1c[nH]c(-c2cnccn2)n1 | 13.4 | 19.8 | 10 | 114 | 4.7 | – | – | – | – | – | -6 | – | – | –

Now from value to compound, other results behind:

Row | clearance [1] [mL/min/kg] | Papp at 20 µM [2] [×10⁻⁶ cm/s] | bioavailability [3] [%] | half-life [5] [min] | AUC(0-inf) [6] [µM·h] | Cmax [7] [nM] | Activity [8] | AUC [10] [µM·h] | F (Mus musculus [11]) [%] | AUC (Mus musculus [12]) [µM·h] | SMILES | Activity (Mus musculus [4]) [%] | Activity (HepG2) [%] | Activity (Mus musculus [9]) | Activity (Mus musculus [13]) [%]
9 | 14 | 13.4 | 88 | 126 | 43.4 | – | – | – | – | – | CC(=O)c1cccc([C@@H](O)[C@H](O)[C@H](O)CO)n1 | 45 | – | – | –
10 | 11.3 | 14.1 | 5 | 42 | 3.2 | – | – | – | – | – | OC[C@@H](O)[C@@H](O)[C@H](O)c1c[nH]c(-c2ncon2)n1 | -16 | – | – | –
11 | 17.3 | 7.93 | 17.1 | 168 | 6.4 | – | – | – | – | – | CCc1[nH]c(C(C)=O)nc1[C@@H](O)[C@H](O)[C@H](O)CO | 8 | – | – | –
12 | 8.9 | 9 | 5 | 156 | 3.6 | – | – | – | – | – | CC(=O)N/N=C(\C)c1nc([C@@H](O)[C@H](O)[C@H](O)CO)c[nH]1 | – | – | – | -41
13 | 6.8 | – | 42 | 198 | 42.7 | – | – | – | – | – | CO[C@H](c1c[nH]c(C(C)=O)n1)[C@H](O)[C@H](O)CO | 16 | – | – | –
14 | 18.8 | 9.9 | 25 | 324 | 15.7 | – | – | – | – | – | CC(=O)c1nc([C@@H](O)[C@@H](O)[C@H](O)CO)c[nH]1 | -31 | – | – | –
15 | 13.5 | – | 14 | 240 | 6 | – | – | – | – | – | O=C(c1ccccc1)c1nc([C@@H](O)[C@H](O)[C@H](O)CO)c[nH]1 | – | – | – | -17
